From PMC10439028, “SGLT5 is the renal transporter for 1,5-anhydroglucitol, a major player in two rare forms of neutropenia” (Cellular and Molecular Life Sciences: CMLS, 2023)

Biological target: T1, mouse SGLT4 (Mus musculus, UniProt Q8VDT1)
T1 construct: expressed in transfected cells; host or cells: HEK293T
T1 sequence (Q8VDT1 1-685): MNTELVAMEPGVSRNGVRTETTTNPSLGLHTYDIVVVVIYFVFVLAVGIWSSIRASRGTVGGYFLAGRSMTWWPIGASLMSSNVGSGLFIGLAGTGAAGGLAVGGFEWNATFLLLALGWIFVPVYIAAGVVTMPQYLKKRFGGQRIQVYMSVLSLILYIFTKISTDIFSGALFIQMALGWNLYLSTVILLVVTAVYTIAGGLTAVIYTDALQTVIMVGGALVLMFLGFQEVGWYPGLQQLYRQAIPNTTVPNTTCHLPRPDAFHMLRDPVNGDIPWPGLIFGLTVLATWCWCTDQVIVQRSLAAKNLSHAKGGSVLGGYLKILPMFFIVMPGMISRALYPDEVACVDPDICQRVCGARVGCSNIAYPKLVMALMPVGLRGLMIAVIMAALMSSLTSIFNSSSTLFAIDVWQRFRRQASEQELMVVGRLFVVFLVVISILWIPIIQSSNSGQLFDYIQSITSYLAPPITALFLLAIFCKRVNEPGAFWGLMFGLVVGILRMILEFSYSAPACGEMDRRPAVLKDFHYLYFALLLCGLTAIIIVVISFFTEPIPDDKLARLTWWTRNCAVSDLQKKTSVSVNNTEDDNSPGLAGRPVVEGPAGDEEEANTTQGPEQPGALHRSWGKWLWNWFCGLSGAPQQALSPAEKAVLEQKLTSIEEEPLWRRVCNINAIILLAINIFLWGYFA
Experiment: Radioactive uptake assay (saturation kinetics) in HEK293T cells expressing mouse SGLT4
Type: cell-based
Procedure: For a typical transporter experiment we proceeded as follows. […] To minimize cell loss during the various washing steps in the radioactive uptake experiments, the wells where the cells were seeded were previously coated with poly- D-lysine, which improved their adhesion to the plastic surface of the wells. For this, each well of the 24-well plates was treated with 200 µl of a 0.01% poly-L-lysine solution for 10 min, washed 3 times with 1 ml of sterilized water and left to dry for 2 h. Only then could the 24-well plates be seeded with the appropriate cell lines and cultured overnight at 37 °C in 5% CO2.
On day two, the radioactive uptake assay could be performed. The cell culture media was removed by aspiration and cells were incubated for 20 min at 37 °C and 5% CO2 with a basal medium (10 mM HEPES, pH 7.4, 1 mM CaCl2, 1 mM MgCl2, 2 mM KCl) containing 140 mM choline chloride to deplete intracellular […] ions. This was subsequently replaced with the uptake medium (basal medium + 140 mM NaCl, 25 μM cytochalasin B, 1 mg/ml BSA) containing either radioactive U-[^14C]-mannose (15,000 cpm/well) or 2-[^3H]-1,5-AG (30,000 cpm/well) and respectively, non-radioactive mannose or 1,5-AG, at the required concentration in the experiment. Importantly, when measuring the transport of mannose, the uptake media also contained 0.5 mM glucose. This resulted from the need to reduce the background transport of mannose in control HEK293T cells in order to optimize the transport assay for this sugar in our model cell lines. Consequently, after testing various inhibitors (Supplementary Fig. 1), 0.5 mM glucose + 25 µM cytochalasin B appeared as the best combination to decrease efficiently the endogenous transport of mannose in control cells without affecting the transport of mannose in model cell lines overexpressing SGLT4 and SGLT5. […]
Once the uptake medium was added to the cells, the plates were incubated at 37 °C in 5% CO2 during the required time. […] In each experiment, the transport activities were calculated after subtracting a “blank” value, corresponding to the radioactivity in the appropriate control cells (HEK293T cells that were stably or transiently transfected with one of the parent plasmids pEF6/MycHisA, pEF6HisB, pUB82 or pUB83 with no inserted cDNA) that were analyzed in parallel. […]
Supplementary Fig. 4: Transport activities for 1,5-anhydroglucitol and mannose of recombinant mouse SGLT4 and SGLT5 isoforms measured in HEK293T cells.
Transport was measured in 24 well plates with 0.6x10^6 cells during 30 mins at 37°C in 5% CO2 in the presence of the indicated concentrations of 2-[1H+3H]-1,5-AG for both mSGLT4 (A) and mSGLT5 (B) and U-[12C+14C]-mannose (C) for mSGLT4. […]

Row | Compound | mSGLT4 Vmax (30 min, Supplementary Fig. 4) [pmol/min/100 000 cells] | Km (30 min, Supplementary Fig. 4, read-out: mSGLT4 Km) [mM] | Km of mouse SGLT4 lower for mannose than for 1,5-AG (mannose versus 1,5-AG) [fold]
1 | OC[C@H]1OC[C@H](O)[C@@H](O)[C@@H]1O [1,5-AG, 1,5-anhydroglucitol] | 152 | > 5 | –
2 | OC[C@H]1OC(O)[C@@H](O)[C@@H](O)[C@@H]1O (stereo partly shown) [Mannose, mannose] | 29 | – | 25
